{"source": "paper PMC11998009", "about": "“Identification of a New FtsZ Inhibitor by Virtual Screening, Mechanistic Insights, and Structure–Activity Relationship Analyses” (ACS Infectious Diseases, 2025)", "key": {"S. aureus ATCC25923 [1]": {"tested_on": "S. aureus ATCC25923", "assay": "MIC determination by 2-fold microdilution, resazurin method", "assay_type": "cell-based, Staphylococcus aureus", "conditions": "S. aureus ATCC25923, single drug"}, "[2]": {"molecular_target": "T1, S. aureus FtsZ protein (FtsZSa) (Staphylococcus aureus, UniProt P0A031)", "T1 construct": "made in house; host or cells: Escherichia coli BL21DE3", "T1 sequence (P0A031 1-390)": "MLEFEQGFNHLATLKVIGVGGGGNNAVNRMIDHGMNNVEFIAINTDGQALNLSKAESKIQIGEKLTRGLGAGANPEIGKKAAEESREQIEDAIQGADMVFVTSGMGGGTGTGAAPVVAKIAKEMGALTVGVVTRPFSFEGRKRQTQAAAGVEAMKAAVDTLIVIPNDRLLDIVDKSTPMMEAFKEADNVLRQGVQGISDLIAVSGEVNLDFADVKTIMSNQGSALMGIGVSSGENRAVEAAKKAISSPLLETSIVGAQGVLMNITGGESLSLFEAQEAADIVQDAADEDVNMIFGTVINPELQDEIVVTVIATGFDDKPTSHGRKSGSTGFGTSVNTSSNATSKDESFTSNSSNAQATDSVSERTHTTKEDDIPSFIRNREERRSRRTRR", "assay": "In vitro FtsZ GTPase activity (PK/LDH coupled assay)", "assay_type": "biochemical", "parameters": "Residual GTPase activity: concentration or dose not given beside the values", "description": "In vitro FtsZ GTPase activity\nFtsZSa and FtsZPa were expressed and purified as previously described.13,14 GTPase activity was assayed at 30°C using a pyruvate kinase–L-lactic dehydrogenase (PK/LDH) spectrophotometric coupled assay, as previously described15 with minor modification. The reaction mixture was first set up to contain 50 mM MES […]\nphosphoenolpyruvate, and 4.8 μM of FtsZ. The assay was initiated by the addition of 1 mM GTP. The experiments were performed in triplicate. The inhibitory concentration that reduced the enzymatic activity by half (IC50) was determined using Prism 10. […]"}, "S. aureus ATCC25923 [3]": {"tested_on": "S. aureus ATCC25923", "assay": "Time-killing curve", "assay_type": "cell-based", "description": "(§1) page 19: […] MIC method. […] The cultures were incubated at 37°C, and aliquots were […] Serial dilutions were spread on LB solid medium and the plates were incubated at 37°C O/N. Then, the number of colonies was determined. Killing curves were constructed by plotting the log10 CFU/ml vs. time. Bactericidal activity was defined as a reduction of 99.9% (≥3 log 10) of the total number of CFU/ml in the original inoculum (NCCLS, 1999). Bacteriostatic activity was defined as maintenance of the original inoculum concentration or a reduction of less than 99.9% (<3 log10) of the total number of CFU/ml in the original inoculum. Live cell imaging experiments […] Cells were diluted to OD of 0.02 in fresh TSB containing in the case of strain TD276 anhydrotetracycline 0.4 μM to induce the expression of mCherryFtsZ. After 1 hour of incubation at 37°C 2 μl of the culture was spotted onto an agar pad prepared with TSB and […] For time-lapse microscopy experiments, an inverted widefield microscope (Leica DMi8S) equipped with a 100× oil immersion objective (HC PL FLUOTAR 100x/1.32 OIL) was used. […] Images were recorded at 15-min intervals and up to 5 h. Bacteria were visualized in phase- contrast and fluorescence with the required parameters. […] S. aureus […] in fluorescence (with the required parameters for Hoechst and mCherry) using a 160x objective (HC PL APO S19"}, "S. aureus ATCC25923 [4]": {"tested_on": "S. aureus ATCC25923", "assay": "Single-cell time-lapse microscopy, cell area", "assay_type": "cell-based", "conditions": "2 × MIC (4 μg/mL), 5 h", "description": "as §1"}, "[5]": {"tested_on": "S. aureus TD276 expressing FtsZ-mCherry", "assay": "FtsZ localization by fluorescence time-lapse microscopy", "assay_type": "cell-based", "conditions": "4 μg/mL C11, time-lapse; untreated 4%"}, "[6]": {"tested_on": "S. aureus ATCC25923 biofilms", "assay": "Biofilm inhibition assay (CFU counting, CLSM)", "assay_type": "cell-based"}, "[7]": {"tested_on": "S. aureus ATCC25923 biofilms", "assay": "Biofilm eradication assay (CFU counting, CLSM)", "assay_type": "cell-based"}, "mammalian tubulin": {"tested_on": "mammalian tubulin", "assay": "Tubulin polymerization assay, fluorescence based", "assay_type": "biochemical", "conditions": "for Vmax of tubulin polymerization: DMSO control 3.78"}, "G. mellonella": {"tested_on": "G. mellonella", "assay": "Toxicity in uninfected G. mellonella larvae", "assay_type": "in vivo, Galleria mellonella", "conditions": "40 mg/kg"}, "P. aeruginosa PAO1": {"tested_on": "P. aeruginosa PAO1", "assay": "MIC / checkerboard with PaβN", "assay_type": "cell-based"}, "K. pneumoniae ATCC13883": {"tested_on": "K. pneumoniae ATCC13883", "assay": "MIC / checkerboard with PaβN", "assay_type": "cell-based"}, "A. baumannii ATCC19606": {"tested_on": "A. baumannii ATCC19606", "assay": "MIC / checkerboard with PaβN", "assay_type": "cell-based"}, "[8]": {"tested_on": "P. aeruginosa PAO1, K. pneumoniae ATCC13883, and A. baumannii ATCC19606", "assay": "MIC of C11 with PAβN, Gram-negative panel as a whole", "assay_type": "cell-based", "conditions": "efflux pump inhibitor PAβN present"}, "S. aureus ATCC25923 [9]": {"tested_on": "S. aureus ATCC25923", "assay": "Galleria mellonella infection model"}, "[10]": {"assay": "MTT cell viability assay on CFBE41o-", "conditions": "human, CFBE41o- cells"}, "CFBE41o- cells": {"tested_on": "CFBE41o- cells", "assay": "MTT cell viability assay on CFBE41o-", "conditions": "CFBE41o-, 12.5 μM (4.8 μg/mL), 6 h"}, "FtsZSa": {"molecular_target": "T2, FtsZSa (Staphylococcus aureus, UniProt P0A031)", "T2 sequence (P0A031 1-390)": "T1 sequence (P0A031 1-390)", "assay": "FtsZSa polymerization, 90° light scattering"}}, "note": "Read-outs that look alike come from different tables or passages of the source.", "data": [{"compound": "COc1ccc(Cc2nnc(SC3=CS(=O)(=O)c4ccccc43)o2)cc1", "note": "[C11]", "values": [{"measurement": "MIC S. aureus", "setting": "S. aureus ATCC25923 [1]", "value": 2, "unit": "µg/mL"}, {"measurement": "MIC", "setting": "S. aureus ATCC25923 [1]; Staphylococcus aureus", "value": 2, "unit": "µg/mL"}, {"measurement": "Effect on FtsZSa GTPase activity", "setting": "[2]", "value": "did not affect the FtsZSa GTPase activity"}, {"measurement": "Residual GTPase activity", "setting": "[2]; S. aureus FtsZ protein", "value": 82.2, "unit": "%"}, {"measurement": "Time-kill effect", "setting": "S. aureus ATCC25923 [3]; 1- or 2-fold the MIC, 24 h", "value": "Bacteriostatic effect"}, {"measurement": "Time-kill effect", "setting": "S. aureus ATCC25923 [3]; half of the MIC", "value": "slight regrowth"}, {"measurement": "Area of the cells compared to untreated cells", "setting": "S. aureus ATCC25923 [4]", "value": "significantly larger"}, {"measurement": "Percentage of cells in which FtsZ was delocalized", "setting": "[5]", "value": 60, "unit": "%"}, {"measurement": "Biofilm formation by CLSM and COMSTAT2", "setting": "[6]; 2 μg/mL", "value": "only slightly affected biofilm formation"}, {"measurement": "Biofilm formation by CFU counting", "setting": "[6]; 2- or 4-fold the MIC (4–8 μg/mL)", "value": "almost completely inhibit biofilm formation"}, {"measurement": "Biofilm formation by CLSM and COMSTAT2", "setting": "[6]; 4 and 8 μg/mL", "value": "almost completely abolished it"}, {"measurement": "Biofilm eradication, viable cells by CFU counting", "setting": "[7]; 2 × MIC, 4 μg/mL, 24 h treatment", "value": "reduce the number of viable cells"}, {"measurement": "Biofilm eradication by CLSM", "setting": "[7]; increasing concentrations (4, 8, 16 μg/ml)", "value": "eradicating the majority of the attached cells"}, {"measurement": "Vmax of tubulin polymerization", "setting": "mammalian tubulin; 5 μM", "value": 3.5, "unit": "mOD/min"}, {"measurement": "Vmax of tubulin polymerization", "setting": "mammalian tubulin; 10 μM", "value": 3, "unit": "mOD/min"}, {"measurement": "Decrease of tubulin polymerization", "setting": "mammalian tubulin; 25 μM (9.6 μg/mL), highest tested concentration", "value": 20, "unit": "%"}, {"measurement": "Vmax of tubulin polymerization", "setting": "mammalian tubulin; 25 μM", "value": 2.8, "unit": "mOD/min"}, {"measurement": "Toxicity for G. mellonella (survival of not infected, treated larvae)", "setting": "G. mellonella", "value": "not toxic"}, {"measurement": "MIC", "setting": "P. aeruginosa PAO1; P. aeruginosa PAO1, C11 alone", "value": "≥ 128", "unit": "µg/mL"}, {"measurement": "MIC", "setting": "P. aeruginosa PAO1; Pseudomonas aeruginosa, PAO1, P. aeruginosa PAO1, + PaβN 64 µg/ml, read-out: MIC", "value": 16, "unit": "µg/mL"}, {"measurement": "MIC", "setting": "P. aeruginosa PAO1; Pseudomonas aeruginosa, PAO1, P. aeruginosa PAO1, + PaβN […], read-out: MIC", "value": 1, "unit": "µg/mL"}, {"measurement": "MIC", "setting": "P. aeruginosa PAO1; Pseudomonas aeruginosa, PAO1, P. aeruginosa PAO1, C11 alone, read-out: MIC", "value": "≥ 128", "unit": "µg/mL"}, {"measurement": "MIC", "setting": "K. pneumoniae ATCC13883; K. pneumoniae ATCC13883, C11 alone", "value": "≥ 128", "unit": "µg/mL"}, {"measurement": "MIC", "setting": "K. pneumoniae ATCC13883; Klebsiella pneumoniae, ATCC13883, K. pneumoniae ATCC13883, + PaβN […], read-out: MIC", "value": 8, "unit": "µg/mL"}, {"measurement": "MIC", "setting": "K. pneumoniae ATCC13883; Klebsiella pneumoniae, ATCC13883, K. pneumoniae ATCC13883, C11 alone, read-out: MIC", "value": "≥ 128", "unit": "µg/mL"}, {"measurement": "MIC", "setting": "A. baumannii ATCC19606; A. baumannii ATCC19606, C11 alone", "value": "≥ 128", "unit": "µg/mL"}, {"measurement": "MIC", "setting": "A. baumannii ATCC19606; Acinetobacter baumannii, ATCC19606, A. baumannii ATCC19606, + PaβN 64 µg/ml, read-out: MIC", "value": 1, "unit": "µg/mL"}, {"measurement": "MIC", "setting": "A. baumannii ATCC19606; Acinetobacter baumannii, ATCC19606, A. baumannii ATCC19606, C11 alone, read-out: MIC", "value": "≥ 128", "unit": "µg/mL"}, {"measurement": "MIC values in the presence of PAβN", "setting": "[8]", "value": "1 to 16", "unit": "µg/mL"}, {"measurement": "Survival rate of infected larvae", "setting": "S. aureus ATCC25923 [9]; 40 mg/kg 2 h after infection, 2 days postinfection, DMSO group 46%", "value": 77, "unit": "%"}, {"measurement": "Survival rate of infected larvae", "setting": "S. aureus ATCC25923 [9]; 40 mg/kg, after 6 days", "value": "significantly higher than the mock-treated group"}, {"measurement": "Survival rate of infected larvae", "setting": "S. aureus ATCC25923 [9]; 40 mg/kg, three days postinfection, DMSO group 32%", "value": 58, "unit": "%"}, {"measurement": "viability at 6 h, 25 µM", "setting": "[10]", "value": 65, "unit": "%"}, {"measurement": "viability at 24 h, 25 µM", "setting": "[10]", "value": 25, "unit": "%"}, {"measurement": "Percentage of live cells (MTT)", "setting": "CFBE41o- cells", "value": "higher than 90%"}, {"measurement": "IC50", "setting": "FtsZSa", "value": 48, "unit": "µM"}]}]}
